Laboratory results from PMC10196118, “Evidence for broad cross-reactivity of the SARS-CoV-2 NSP12-directed CD4^+ T-cell response with pre-primed responses directed against common cold coronaviruses” (Frontiers in Immunology, 2023).

Test system: pre-cultured PBMCs (NSP12-specific T cells)
Test: IFN-γ ELISpot with single 15-mer peptides after 11–13 days in vitro peptide-pool T-cell expansion
Type: cell-based, human
Conditions: for peptide-specific response, donor HH-N12-18, post COVID-19 / peptide-specific response, donor HH-N12-18, pre COVID-19 / peptide-specific response, donor HH-N12-34, post COVID-19 / peptide-specific response, donor HH-N12-34, pre COVID-19 / peptide-specific response, donor HH-N12-35, post COVID-19 / peptide-specific response, donor HH-N12-35, pre COVID-19 / peptide-specific response, donor HH-N12-36, post COVID-19 / peptide-specific response, donor HH-N12-36, pre COVID-19 / peptide-specific response, donor HH-N12-37, post COVID-19 / peptide-specific response, donor HH-N12-37, pre COVID-19: single NSP12 15-mer peptides
[1] = donor HH-N12-18, sample post COVID-19
[2] = donor HH-N12-18, sample pre COVID-19
[3] = donor HH-N12-34, sample post COVID-19
[4] = donor HH-N12-34, sample pre COVID-19
[5] = donor HH-N12-35, sample post COVID-19
[6] = donor HH-N12-35, sample pre COVID-19
[7] = donor HH-N12-36, sample post COVID-19
[8] = donor HH-N12-36, sample pre COVID-19
[9] = donor HH-N12-37, sample post COVID-19
[10] = donor HH-N12-37, sample pre COVID-19

Substance	peptide-specific response, donor HH-N12-18, post COVID-19 [1]	peptide-specific response, donor HH-N12-18, pre COVID-19 [2]	peptide-specific response, donor HH-N12-34, post COVID-19 [3]	peptide-specific response, donor HH-N12-34, pre COVID-19 [4]	peptide-specific response, donor HH-N12-35, post COVID-19 [5]	peptide-specific response, donor HH-N12-35, pre COVID-19 [6]	peptide-specific response, donor HH-N12-36, post COVID-19 [7]	peptide-specific response, donor HH-N12-36, pre COVID-19 [8]	peptide-specific response, donor HH-N12-37, post COVID-19 [9]	peptide-specific response, donor HH-N12-37, pre COVID-19 [10]	peptide-specific T-cell response, donor HH-N12-18, post COVID-19 (donor HH-N12-18, sample post COVID-19, single NSP12 15-mer peptide, 0 = no response)	peptide-specific T-cell response, donor HH-N12-18, pre COVID-19 (donor HH-N12-18, sample pre COVID-19, single NSP12 15-mer peptide, 0 = no response)	peptide-specific T-cell response, donor HH-N12-34, post COVID-19 (donor HH-N12-34, sample post COVID-19, single NSP12 15-mer peptide, 0 = no response)	peptide-specific T-cell response, donor HH-N12-34, pre COVID-19 (donor HH-N12-34, sample pre COVID-19, single NSP12 15-mer peptide, 0 = no response)	peptide-specific T-cell response, donor HH-N12-35, post COVID-19 (donor HH-N12-35, sample post COVID-19, single NSP12 15-mer peptide, 0 = no response)	peptide-specific T-cell response, donor HH-N12-35, pre COVID-19 (donor HH-N12-35, sample pre COVID-19, single NSP12 15-mer peptide, 0 = no response)	peptide-specific T-cell response, donor HH-N12-36, post COVID-19 (donor HH-N12-36, sample post COVID-19, single NSP12 15-mer peptide, 0 = no response)	peptide-specific T-cell response, donor HH-N12-36, pre COVID-19 (donor HH-N12-36, sample pre COVID-19, single NSP12 15-mer peptide, 0 = no response)	peptide-specific T-cell response, donor HH-N12-37, post COVID-19 (donor HH-N12-37, sample post COVID-19, single NSP12 15-mer peptide, 0 = no response)	peptide-specific T-cell response, donor HH-N12-37, pre COVID-19 (donor HH-N12-37, sample pre COVID-19, single NSP12 15-mer peptide, 0 = no response)
DIYNDKVAGFAKFLK [compound 8]	0	0	0	0	0	0	0	0	0	0	–	–	–	–	–	–	–	–	–	–
Peptide 110: 15-mer peptide of SARS-CoV-2 NSP12, aa 546-560	0	0	0.023	0	0	0	0	0	0	0	–	–	–	–	–	–	–	–	–	–
LTAESHVDTDLTKPY [compound 51]	0	0	0	0	0	0	0	0.05	0	0	–	–	–	–	–	–	–	–	–	–
IDSYFVVKRHTFSNY [compound 14]	0	0	0	0	0	0	0	0	0	0	–	–	–	–	–	–	–	–	–	–
FFKFRIDGDMVPHIS [compound 21]	0	0	0	0	0	0	0	0	0	0	–	–	–	–	–	–	–	–	–	–
TEERLKLFDRYFKYW [compound 56]	0	0	0	0	0	0.04	0.022	0	0	0	–	–	–	–	–	–	–	–	–	–
LVLARKHTTCCSLSH [compound 128]	0	0	0	0	0	0	0	0	0	0	–	–	–	–	–	–	–	–	–	–
DLNGNWYDFGDFIQT [compound 43]	0.035	0	0	0	0	0	0	0.028	0	0	–	–	–	–	–	–	–	–	–	–
QHEETIYNLLKDCPA [compound 17]	0	0	0	0	0	0	0	0	0.021	0	–	–	–	–	–	–	–	–	–	–
TNCCRFQEKDEDDNL [compound 11]	0	0.035	0	0	0	0	0	0	0	0	–	–	–	–	–	–	–	–	–	–
MRNAGIVGVLTLDNQ [compound 40]	0	0	0.032	0	0	0	0	0	0	0	–	–	–	–	–	–	–	–	–	–
VASIKNFKSVLYYQN [compound 156]	–	–	–	–	–	–	–	–	–	–	0	0	0.025	0	0	0	0	0	0	0
LKYDFTEERLKLFDR [compound 55]	0	0	0	0	0	0	0	0	0	0	–	–	–	–	–	–	–	–	–	–
